Test results taken from ChEMBL document CHEMBL1121985, “3'-Hydroxy- and (+/-)-3',11-dihydroxy-delta 9-tetrahydrocannabinol: biologically active metabolites of delta 9-tetrahydrocannabinol” (1982).

Key:
Mus musculus [1] = test: Tested for the ability to change in rectal temperature in mice at 30 mg/kg; assay type: functional
Mus musculus [2] = test: Tested for the ability to change in rectal temperature in mice at 6 mg/kg; assay type: functional
Canis familiaris [3] = test: Tested for Maximal behavioral effect(overt behavior) in dogs, activity is expressed as av score at a dose of 0.2 mg/kg; assay type: functional, Canis lupus familiaris
Mus musculus [4] = test: Tested for the ability to alter the spontaneous activity in mice at 30 mg/kg; assay type: functional
Canis familiaris [5] = test: Tested for Maximal behavioral effect(overt behavior) in dogs, activity is expressed as av score at a dose of 0.5 mg/kg; assay type: functional, Canis lupus familiaris
Mus musculus [6] = test: Tested for the ability to alter the spontaneous activity in mice at 10 mg/kg; assay type: functional
Mus musculus [7] = test: Tested for the ability to alter the spontaneous activity in mice at 6 mg/kg; assay type: functional
Mus musculus [8] = test: Tested for the ability to change in rectal temperature in mice a 3 mg/kg; assay type: functional
Mus musculus [9] = test: Tested for the ability to alter the spontaneous activity in mice at 3 mg/kg; assay type: functional
Mus musculus [10] = test: Tested for the ability to change in rectal temperature in mice at 10 mg/kg; assay type: functional
Mus musculus [11] = test: Tested for the ability to change in rectal temperature in mice at 1 mg/kg; assay type: functional
Mus musculus [12] = test: Tested for the ability to change in rectal temperature in mice at 0.3 mg/kg; assay type: functional
Mus musculus [13] = test: Tested for the ability to alter the spontaneous activity in mice at 0.1 mg/kg; assay type: functional
Canis familiaris [14] = test: Tested for Maximal behavioral effect(overt behavior) in dogs, activity is expressed as av score at a dose of 0.05 mg/kg; assay type: functional, Canis lupus familiaris
Mus musculus [15] = test: Tested for the ability to alter the spontaneous activity in mice at 0.3 mg/kg; assay type: functional
Mus musculus [16] = test: Tested for the ability to change in rectal temperature in mice at 3 mg/kg; assay type: functional
Mus musculus [17] = test: Tested for the ability to alter the spontaneous activity in mice at 1 mg/kg; assay type: functional
Canis familiaris [18] = test: Tested for Maximal behavioral effect(overt behavior) in dogs, activity is expressed as av score at a dose of 0.1 mg/kg; assay type: functional, Canis lupus familiaris
Mus musculus [19] = test: Tested for the ability to change in rectal temperature in mice at 0.1 mg/kg; assay type: functional
Canis familiaris [20] = test: Cardiovascular effect for percentage change in blood pressure in anesthetized dogs after 1 mg/kg iv dose; assay type: functional, Canis lupus familiaris
Canis familiaris [21] = test: Cardiovascular effect for percentage change in heart rate in anesthetized dogs after 1 mg/kg iv dose; assay type: functional, Canis lupus familiaris
Mus musculus [22] = test: Tested for the ability to change in rectal temperature in mice at 2.5 mg/kg; assay type: functional
Canis familiaris [23] = test: Tested for Maximal behavioral effect(overt behavior) in dogs, activity is expressed as av score at a dose of 0.4 mg/kg; assay type: functional, Canis lupus familiaris
Mus musculus [24] = test: Tested for the ability to change in rectal temperature in mice at 5.0 mg/kg; assay type: functional
Mus musculus [25] = test: Tested for the ability to alter the spontaneous activity in mice at 2.5 mg/kg; assay type: functional
Mus musculus [26] = test: Tested for the ability to alter the spontaneous activity in mice at 7.5 mg/kg; assay type: functional
Mus musculus [27] = test: Tested for the ability to alter the spontaneous activity in mice at 10.0 mg/kg; assay type: functional
Mus musculus [28] = test: Tested for the ability to change in rectal temperature in mice at 10.0 mg/kg; assay type: functional
Mus musculus [29] = test: Tested for the ability to alter the spontaneous activity in mice at 5.0 mg/kg; assay type: functional
Mus musculus [30] = test: Tested for the ability to change in rectal temperature in mice at 7.5 mg/kg; assay type: functional

CCC(O)CCc1cc(O)c2c(c1)OC(C)(C)[C@@H]1CCC(CO)=CC21 (stereo partly drawn)
Change in temparature (Mus musculus [1]): -4.3 °C | Change in temparature (Mus musculus [2]): -0.2 °C | Average score (Canis familiaris [3]): 1 | Activity (Mus musculus [4]): 26 | Average score (Canis familiaris [5]): 3 | Activity (Mus musculus [6]): 33 | Activity (Mus musculus [7]): 59 | Change in temparature (Mus musculus [8]): -0.4 °C | Activity (Mus musculus [9]): 81 | Change in temparature (Mus musculus [10]): -3 °C

CCC(O)CCc1cc(O)c2c(c1)OC(C)(C)[C@@H]1CCC(C)=CC21 (stereo partly drawn)
Change in temparature (Mus musculus [11]): -2.8 °C | Change in temparature (Mus musculus [12]): -1.3 °C | Activity (Mus musculus [13]): 108 | Average score (Canis familiaris [14]): 1 | Activity (Mus musculus [15]): 86 | Average score (Canis familiaris [3]): 4.5 | Activity (Mus musculus [6]): 7 | Change in temparature (Mus musculus [16]): -4.1 °C | Activity (Mus musculus [17]): 27 | Average score (Canis familiaris [18]): 2 | Change in temparature (Mus musculus [19]): -0.4 °C | Average score (Canis familiaris [20]): -45% | Change (Canis familiaris [21]): -12% | Activity (Mus musculus [9]): 13 | Change in temparature (Mus musculus [10]): -7.6 °C

CCCCCc1cc(O)c2c(c1)OC(C)(C)[C@@H]1CCC(C)=C[C@@H]21 [DRONABINOL]
Change in temparature (Mus musculus [22]): -2.6 °C | Average score (Canis familiaris [3]): 3 | Average score (Canis familiaris [23]): 4 | Change in temparature (Mus musculus [24]): -3.6 °C | Activity (Mus musculus [25]): 59 | Average score (Canis familiaris [18]): 0 | Change (Canis familiaris [20]): -46% | Activity (Mus musculus [26]): 17 | Change (Canis familiaris [21]): -39% | Activity (Mus musculus [27]): 6 | Change in temparature (Mus musculus [28]): -4.2 °C | Activity (Mus musculus [29]): 20 | Change in temparature (Mus musculus [30]): -3.8 °C
